# “And” between values parts separate entries of the source, which are not always exact repeats. Identical values can stand only once. Counter-ions that a name gives are not always drawn.
# Tests used:
# brain CYP2D [1] = conditions: seven-day subcutaneous nicotine; ref McMillan and Tyndale, 2015; cited from earlier work
# brain CYP2D [2] = conditions: seven-day subcutaneous nicotine; ref McMillan and Tyndale, 2015; cited from earlier work; remark: listed apart in the source
# Adult male Wistar rats [3] = test: Tail-flick latency; assay type: in vivo, rat; conditions: for decrease in potency when moving from i.p. to p.o. route of administration: analgesia, i.p. vs p.o.; for peak analgesia: tail-flick
# brain CYP2D [4] = conditions: 24 hr i.c.v. propranolol pretreatment, pilot study
# brain CYP2D [5] = conditions: 24 hr i.c.v. propranolol pretreatment, pilot microdialysis study, tramadol p.o.
# Adult male Wistar rats [6] = conditions: tramadol 40 mg/kg i.p.; ref Wang et al., 2015; cited from earlier work
# [7] = oral tramadol; ref Nobilis et al., 2002, Ong et al., 2005; cited from earlier work
smiles,measurement,setting,value
CN1CCC[C@H]1c1cccnc1 [nicotine],"increase in codeine-induced antinociception, tail-flick reflex AUC0–30 min",brain CYP2D [1],1.6 fold
same,"increase in codeine-induced antinociception, hot-plate test AUC",brain CYP2D [2],2.5 fold
COc1ccc2c3c1O[C@H]1[C@@H](O)C=C[C@H]4[C@@H](C2)N(C)CC[C@@]341 [codeine],decrease in potency when moving from i.p. to p.o. route of administration,Adult male Wistar rats [3],2.5 – 10 fold
"CC(C)NCC(O)COc1cccc2ccccc12 (stereo not drawn) [propranolol, Propranolol hydrochloride]",effect on analgesia after tramadol p.o.,brain CYP2D [4],increase in analgesia
same,"effect on brain levels of tramadol, ODSMT and NDSMT",brain CYP2D [5],increased
"COc1cccc(C2(O)CCCCC2CN(C)C)c1 (stereo not drawn) [tramadol, Tramadol hydrochloride]",decrease in potency when moving from i.p. to p.o. route of administration,Adult male Wistar rats [3],2.5 – 10 fold and 2.5 fold
same,"overall analgesic response, AUC 0–60 min",Adult male Wistar rats [3]; tramadol 40 mg/kg i.p.,2840 %MPE*min
same,time to peak analgesia,Adult male Wistar rats [3]; tramadol 40 mg/kg i.p.,50 min post-injection
same,peak analgesia,Adult male Wistar rats [3]; tramadol 40 mg/kg i.p.,65 % MPE
same,peak analgesia,Adult male Wistar rats [3]; tramadol 100 mg/kg p.o.,74 % MPE
same,"overall analgesic response, AUC 0–60 min (published)",Adult male Wistar rats [6],1740 %MPE*min
same,peak analgesia (published),Adult male Wistar rats [6],approximately 52 % MPE
same,time to peak analgesia (published),Adult male Wistar rats [6],45 min post-injection
same,fraction of a tramadol dose undergoing first-pass metabolism,[7],30%
CN1CC[C@]23c4c5ccc(O)c4O[C@H]2[C@@H](O)C=C[C@H]3[C@H]1C5 [morphine],decrease in potency when moving from i.p. to p.o. route of administration,Adult male Wistar rats [3],2.5 – 10 fold
